Results published in patent US5663331A, “Cephalosporin compounds” (Il-Dong Pharm. Co., Ltd., priority 1992, dated 1997).
In brackets after ≈: the same amount, converted by molar mass.

Legend:
Format in all cases: cell-based
[1] = test system: Bacillus subtilis ATCC 6633; experiment: MIC, two-fold dilution method, Bacillus subtilis ATCC 6633; details: 10^6 CFU per ml, 37° C., 18 to 20 hours; for MIC: ATCC6633, Muller Hinton Broth, read-out: Antibacterial Activity (MIC); for Antibacterial Activity (MIC): Muller Hinton Broth
Experimental: (§1) In order to illustrate the usefulness of the invented compounds, the minimal inhibitory concentrations-(MIC) thereof against standard strains were determined and compared with Cefotaxime, a known compound. Also, the in vitro antibacterial activity was determined by a two-fold dilution method as described below: That is, the two-fold serial dilutions of the compound were made and dispersed in Muller Hinton Broth medium. Standard test strain which had the 10^6 CFU per ml was inoculated on the medium, and was incubated at 37° C. for 18 to 20 hours.

[2] = test system: Staphylococcus aureus ATCC 65389; experiment: MIC, two-fold dilution method, Staphylococcus aureus ATCC 65389; details: 10^6 CFU per ml, 37° C., 18 to 20 hours; for MIC: ATCC65389, Muller Hinton Broth, read-out: Antibacterial Activity (MIC); for Antibacterial Activity (MIC): Muller Hinton Broth
Experimental: as §1

[3] = test system: Staphylococcus epidermidis ATCC 12228; experiment: MIC, two-fold dilution method, Staphylococcus epidermidis ATCC 12228; details: 10^6 CFU per ml, 37° C., 18 to 20 hours; for MIC: ATCC12228, Muller Hinton Broth, read-out: Antibacterial Activity (MIC); for Antibacterial Activity (MIC): Muller Hinton Broth
Experimental: as §1

[4] = test system: Streptococcus faecalis ATCC 10541; experiment: MIC, two-fold dilution method, Streptococcus faecalis ATCC 10541; details: 10^6 CFU per ml, 37° C., 18 to 20 hours; for MIC: Enterococcus faecalis, ATCC10541, Muller Hinton Broth, read-out: Antibacterial Activity (MIC); for Antibacterial Activity (MIC): Muller Hinton Broth
Experimental: as §1

[5] = test system: Pseudomonas aeurginosa NCTC 10490; experiment: MIC, two-fold dilution method, Pseudomonas aeurginosa NCTC 10490; details: 10^6 CFU per ml, 37° C., 18 to 20 hours; for MIC: NCTC10490, Muller Hinton Broth, read-out: Antibacterial Activity (MIC); for Antibacterial Activity (MIC): Muller Hinton Broth
Experimental: as §1

[6] = test system: Esherichia coli ATCC 25922; experiment: MIC, two-fold dilution method, Esherichia coli ATCC 25922; details: Muller Hinton Broth, 10^6 CFU per ml, 37° C., 18 to 20 hours; for MIC: read-out: Antibacterial Activity (MIC)
Experimental: as §1

[7] = test system: Klebsiella pneumoniae ATCC 10031; experiment: MIC, two-fold dilution method, Klebsiella pneumoniae ATCC 10031; details: 10^6 CFU per ml, 37° C., 18 to 20 hours; for MIC: ATCC10031, Muller Hinton Broth, read-out: Antibacterial Activity (MIC); for Antibacterial Activity (MIC): Muller Hinton Broth
Experimental: as §1

SMILES	MIC [1] [µg/mL]	MIC [2] [µg/mL]	MIC [3] [µg/mL]	MIC [4] [µg/mL]	MIC [5] [µg/mL]	MIC [6] [µg/mL]	MIC [7] [µg/mL]	Antibacterial Activity (MIC) [1] [µg/mL]	Antibacterial Activity (MIC) [2] [µg/mL]	Antibacterial Activity (MIC) [3] [µg/mL]	Antibacterial Activity (MIC) [4] [µg/mL]	Antibacterial Activity (MIC) [5] [µg/mL]	Antibacterial Activity (MIC) [6] [µg/mL]	Antibacterial Activity (MIC) [7] [µg/mL]
CC1CNCCN1c1cc2c(cc1F)c(SCC1=C(C(=O)[O-])N3C(=O)C(NC(=O)/C(=N\OC(C)(C)C(=O)O)c4csc(N)n4)[C@H]3SC1)cc[n+]2C (some centres unmarked) [Compound I-56, 7-[(Z)-2-(2-aminothiazol-4-yl)-2-(2-carboxyprop-2-oxyimino)acetamido]-3-[1-methyl-6-fluoro-7-(2-methylpiperazinyl)quinolinium-4-yl]thiomethyl-3-cephem-4-carboxylate]	–	–	–	–	–	–	–	0.2	0.78	0.78	0.39	0.78	0.39	0.39
CO/N=C(\C(=O)NC1C(=O)N2C(C(=O)[O-])=C(CSc3cc[n+](C4CC4)c4cc(N5CCNCC5C)c(F)cc34)CS[C@H]12)c1csc(N)n1 (some centres unmarked) [Compound I-8, 7-[(Z)-2-(2-aminothiazol-4-yl)-2-(methoxyimino)acetamido]-3-[1-cyclopropyl-6-fluoro-7-(2-methylpiperazinyl)quinolinium-4-yl]thiomethyl-3-cephem-4-carboxylate]	–	–	–	–	–	–	–	0.2	0.39	0.2	0.2	0.39	0.78	0.05
C=CC[n+]1ccc(SCC2=C(C(=O)[O-])N3C(=O)C(NC(=O)/C(=N\OC(C)(C)C(=O)O)c4csc(N)n4)[C@H]3SC2)c2cc(F)c(N3CCNCC3C)cc21 (some centres unmarked) [Compound I-64, 7-[(Z)-2-(2-aminothiazol-4-yl)-2-(2-carboxyprop-2-oxyimino)acetamido]-3-[1-allyl-6-fluoro-7-(2-methylpiperazinyl)quinolinium-4-yl]thiomethyl-3-cephem-4-carboxylate]	–	–	–	–	–	–	–	1.56	3.13	1.56	0.39	3.13	1.56	1.56
CO/N=C(\C(=O)NC1C(=O)N2C(C(=O)[O-])=C(CSc3cc[n+](C4CC4)c4cc(N5CCNCC5)c(F)cc34)CS[C@H]12)c1csc(N)n1 (some centres unmarked) [Compound I-5, 7-[(Z)-2-(2-aminothiazol-4-yl)-2-(methoxyimino)acetamido]-3-(1-cyclopropyl-6-fluoro-7-piperazinylquinolinium-4-yl)thiomethyl-3-cephem-4-carboxylate]	0.39 (≈ 0.558 µM)	1.56 (≈ 2.23 µM)	0.78 (≈ 1.12 µM)	0.39 (≈ 0.558 µM)	3.13 (≈ 4.48 µM)	12.5 (≈ 17.9 µM)	0.1 (≈ 0.143 µM)	–	–	–	–	–	–	–
CCN1CCN(c2cc3c(cc2F)c(SCC2=C(C(=O)[O-])N4C(=O)C(NC(=O)/C(=N\OC(C)(C)C(=O)O)c5csc(N)n5)C4SC2)cc[n+]3C)CC1 (centres unmarked) [Compound I-55, 7-[(Z)-2-(2-aminothiazol-4-yl)-2-(2-carboxyprop-2-oxyimino)acetamido]-3-[1-methyl-6-fluoro-7-(1-ethylpiperazinyl)quinolinium-4-yl]thiomethyl-3-cephem4-carboxylate]	0.2 (≈ 0.259 µM)	1.56 (≈ 2.02 µM)	0.78 (≈ 1.01 µM)	0.2 (≈ 0.259 µM)	0.39 (≈ 0.505 µM)	0.78 (≈ 1.01 µM)	0.39 (≈ 0.505 µM)	–	–	–	–	–	–	–
C#CCO/N=C(\C(=O)NC1C(=O)N2C(C(=O)[O-])=C(CSc3cc[n+](CC=C)c4cc(N5CCNCC5C)c(F)cc34)CS[C@H]12)c1csc(N)n1 (some centres unmarked) [Compound I-52, 7-[(Z)-2-(2-aminothiazol-4-yl)-2-(propargyloxyimino)acetamido]-3-[1-allyl-6-fluoro-7-(2-methylpiperazinyl)quinolinium-4-yl]thiomethyl-3-cephem-4-carboxylate]	–	–	–	–	–	–	–	0.39	3.13	1.56	0.78	1.56	0.78	1.56

Continued, values first:

MIC [1] [µg/mL]	MIC [2] [µg/mL]	MIC [3] [µg/mL]	MIC [4] [µg/mL]	MIC [5] [µg/mL]	MIC [6] [µg/mL]	MIC [7] [µg/mL]	Antibacterial Activity (MIC) [1] [µg/mL]	Antibacterial Activity (MIC) [2] [µg/mL]	Antibacterial Activity (MIC) [3] [µg/mL]	Antibacterial Activity (MIC) [4] [µg/mL]	Antibacterial Activity (MIC) [5] [µg/mL]	Antibacterial Activity (MIC) [6] [µg/mL]	Antibacterial Activity (MIC) [7] [µg/mL]	SMILES
0.2 (≈ 0.275 µM)	0.39 (≈ 0.537 µM)	0.2 (≈ 0.275 µM)	0.05 (≈ 0.0688 µM)	0.39 (≈ 0.537 µM)	0.78 (≈ 1.07 µM)	0.05 (≈ 0.0688 µM)	–	–	–	–	–	–	–	CCN1CCN(c2cc3c(cc2F)c(SCC2=C(C(=O)[O-])N4C(=O)C(NC(=O)/C(=N\OC)c5csc(N)n5)C4SC2)cc[n+]3C2CC2)CC1 (centres unmarked) [Compound I-7, 7-[(Z)-2-(2-aminothiazol-4-yl)-2-(methoxyimino)acetamido]-3-3-[1-cyclopropyl-6-fluoro-7-(1-ethylpiperazinyl)quinolinium-4-yl]-thiomethyl-3-cephem-4-carboxylate]
0.2 (≈ 0.285 µM)	0.05 (≈ 0.0713 µM)	0.1 (≈ 0.143 µM)	0.025 (≈ 0.0357 µM)	0.78 (≈ 1.11 µM)	0.78 (≈ 1.11 µM)	0.1 (≈ 0.143 µM)	–	–	–	–	–	–	–	CCN1CCN(c2cc3c(cc2F)c(SCC2=C(C(=O)[O-])N4C(=O)C(NC(=O)/C(=N\OC)c5csc(N)n5)C4SC2)cc[n+]3C)CC1 (centres unmarked) [Compound I-3, 7-[(Z)-2-(2-aminothiazol-4-yl)-2-(methoxyimino)acetamido]-3-[1-methyl-6-fluoro-7-(1-ethylpiperazinyl)quinolinium-4-yl]thiomethyl-3-cephem-4-carboxylate]
0.78 (≈ 1.04 µM)	3.13 (≈ 4.17 µM)	1.56 (≈ 2.08 µM)	1.56 (≈ 2.08 µM)	1.56 (≈ 2.08 µM)	0.78 (≈ 1.04 µM)	0.78 (≈ 1.04 µM)	–	–	–	–	–	–	–	C#CCO/N=C(\C(=O)NC1C(=O)N2C(C(=O)[O-])=C(CSc3cc[n+](CC=C)c4cc(N5CCN(CC)CC5)c(F)cc34)CSC12)c1csc(N)n1 (centres unmarked) [Compound I-51, 7-[(Z)-2-(2-aminothiazol-4-yl)-2-(propargyloxyimino)acetamido]-3-[1-allyl-6-fluoro-7-(1-ethylpiperazinyl)quinolinium-4-yl]thiomethyl-3-cephem-4-carboxylate]
0.2 (≈ 0.275 µM)	0.1 (≈ 0.138 µM)	0.1 (≈ 0.138 µM)	0.2 (≈ 0.275 µM)	1.56 (≈ 2.15 µM)	1.56 (≈ 2.15 µM)	0.2 (≈ 0.275 µM)	–	–	–	–	–	–	–	C=CCO/N=C(\C(=O)NC1C(=O)N2C(C(=O)[O-])=C(CSc3cc[n+](C)c4cc(N5CCN(CC)CC5)c(F)cc34)CSC12)c1csc(N)n1 (centres unmarked) [Compound I-23, 7-[(Z)-2-(2-aminothiazol-4-yl)-2-(allyloxyimino)acetamido]-3-[1-methyl-6-fluoro-7-(1-ethylpiperazinyl)quinolinium-4-yl]thiomethyl-3-cephem-4-carboxylate]
0.1 (≈ 0.146 µM)	0.2 (≈ 0.291 µM)	0.2 (≈ 0.291 µM)	0.1 (≈ 0.146 µM)	3.13 (≈ 4.56 µM)	1.56 (≈ 2.27 µM)	0.78 (≈ 1.14 µM)	–	–	–	–	–	–	–	CC[n+]1ccc(SCC2=C(C(=O)[O-])N3C(=O)C(NC(=O)/C(=N\OC)c4csc(N)n4)C3SC2)c2cc(F)c(N3CCNCC3)cc21 (centres unmarked) [Compound I-9, 7-[(Z)-2-(2-aminothiazol-4-yl)-2-(methoxyimino)acetamido]-3-(1-ethyl-6-fluoro-7-piperazinylquinolinum-4-yl)thiomethyl-3-cephem-4-carboxylate]
0.1 (≈ 0.141 µM)	0.2 (≈ 0.281 µM)	0.78 (≈ 1.1 µM)	0.39 (≈ 0.549 µM)	1.56 (≈ 2.19 µM)	3.13 (≈ 4.4 µM)	0.78 (≈ 1.1 µM)	–	–	–	–	–	–	–	C#CCO/N=C(\C(=O)NC1C(=O)N2C(C(=O)[O-])=C(CSc3cc[n+](CC)c4cc(N5CCNCC5)c(F)cc34)CS[C@H]12)c1csc(N)n1 (some centres unmarked) [Compound I-45, 7-[(Z)-2-(2-aminothiazol-4-yl)-2-(propargyloxyimino)acetamido]-3-(1-ethyl-6-fluoro-7-piperazinylquinolinium-4-yl)thiomethyl-3-cephem-4-carboxylate]
0.39 (≈ 0.556 µM)	0.39 (≈ 0.556 µM)	1.56 (≈ 2.23 µM)	1.56 (≈ 2.23 µM)	6.25 (≈ 8.92 µM)	12.5 (≈ 17.8 µM)	0.78 (≈ 1.11 µM)	–	–	–	–	–	–	–	CC[n+]1ccc(SCC2=C(C(=O)[O-])N3C(=O)C(NC(=O)/C(=N\OC)c4csc(N)n4)C3SC2)c2cc(F)c(N3CCN(C)CC3)cc21 (centres unmarked) [Compound I-10, 7-[(Z)-2-(2-aminothiazol-4-yl)-2-(methoxyimino)acetamido]-3-(1-ethyl-6-fluoro-7-(N-methylpiperazinyl)quinolinium-4-yl]thiomethyl-3-cephem-4-carboxylate]
3.13 (≈ 3.98 µM)	1.56 (≈ 1.98 µM)	1.56 (≈ 1.98 µM)	0.39 (≈ 0.496 µM)	1.56 (≈ 1.98 µM)	3.13 (≈ 3.98 µM)	3.13 (≈ 3.98 µM)	–	–	–	–	–	–	–	CCN1CCN(c2cc3c(cc2F)c(SCC2=C(C(=O)[O-])N4C(=O)C(NC(=O)/C(=N\OC(C)(C)C(=O)O)c5csc(N)n5)C4SC2)cc[n+]3CC)CC1 (centres unmarked) [Compound I-61, 7-[(Z)-2-(2-aminothiazol-4-yl)-2-(2-carboxyprop-2-oxyimino)acetamido]-3-[1-ethyl-6-fluoro-7-(1-ethylpiperazinyl)quinolinium-4-yl]thiomethyl-3-cephem-4-carboxylate]
